Assay results published in US12629405B2, “Ezrin peptide 1 for use in a method of treating COVID-19” ([…], priority 2020, dated 2026).
Ends that are not written are not given here.

How the values were obtained:
[1] = test system: inflammatory cytokine production; settings: cell cultures; cited from earlier work
SARS-COV-2 = assay: Treatment of COVID-19 patients with Ezrin peptide 1 (individual case reports, Examples 1-6); assay type: in vivo, human
J-96 Human Cell Line = settings: cell cultures (Ataullakhanov et al. 2005); cited from earlier work
Toxicity at high dosages = assay type: in vivo; settings: high dosages of 50 mg per kg body weight per day or higher
Description: The dosage of Ezrin peptide 1 and its analogues is not particularly critical, as Ezrin peptide 1 and its analogues are not toxic even at high dosages of 50 mg per kg body weight per day or higher. Preferably, Ezrin peptide 1 and its analogues are administered to an adult human in an amount of at least 0.1 mg per day, in particular at least 0.2 mg per day, e.g. in an amount of at least 0.5 mg per day, such as 0.1 to 50 mg per day or 0.2 to 20 mg per day or 0.5 to 10 mg per day. Typically for parental administrations lower dosages will be required than for oral or rectal administration. To achieve a rapid relief of the symptoms of COVID-19 it may be reasonable to administer at least 1 mg per day or at least 2 mg per day but in other cases a lower dosage may be suitable.

Sequence: TEKKRRETVEREKE [Ezrin peptide 1, NH2_Thr-Glu-Lys-Lys-Arg-Arg-Glu-Thr-Val-Glu-Arg-Glu-Lys-Glu_COOH]
- production of pro- and inflammatory cytokins (e.g. IL-1, IL-6, TNF-alpha) [1]: reduces
- synthesis of alpha- and beta interferons [1]: induces
- severe complications such as fibrosis of the lungs (SARS-COV-2; Example 1): did not occur
- course of disease, symptoms (SARS-COV-2; Example 1, patient, 0.2 mg s.c. daily, 16.03.2020, 3rd administration): increasing symptoms with strong eye pain
- course of disease, symptoms (SARS-COV-2; Example 1, patient, 0.2 mg s.c. daily, 17.03.2020, 4th administration): increasing symptoms with more cough
- course of disease, symptoms (SARS-COV-2; Example 1, patient, 0.2 mg s.c. daily, 18.03.2020, 5th administration): significant signs of recovery, no eye pain, decreasing fever
- course of disease, symptoms (SARS-COV-2; Example 1, patient, 0.2 mg s.c. daily, 19.03.2020, 6th administration): significant signs of recovery, normal body temperature, no fatigue
- course of disease, symptoms (SARS-COV-2; Example 1, patient, 0.2 mg s.c. daily, 20.03.2020, 7th administration): return of taste, good general condition
- course of disease, symptoms (SARS-COV-2; Example 1, patient, 0.2 mg s.c. daily, 21.03.2020, 8th administration): no signs of illness anymore
- course of the disease (duration) (SARS-COV-2; Example 1, compared to the course expected for patients of this risk group): significantly shorter
- severity of symptoms after administration (SARS-COV-2; Example 1, compared with what one would have expected in a patient of this risk group): significantly lower
- course of disease, symptoms (SARS-COV-2; Example 2, patient, 2 mg s.c., 25.04.2020, second dose): still general weakness, shortness of breath, cough, loss of appetite
- body temperature (SARS-COV-2; Example 2, patient, 2 mg s.c., 26.04.2020 in the evening, third administration): 37.5 °C
- course of disease, symptoms (SARS-COV-2; Example 2, patient, 2 mg s.c., 26.04.2020, third administration): Still loss of appetite, slight cough
- course of disease, symptoms (SARS-COV-2; Example 2, patient, 2 mg s.c., 27.04.2020, fourth dose): Slight cough, slight headache
- course of disease, symptoms (SARS-COV-2; Example 2, patient, 2 mg s.c., 28.04.2020, fifth administration): Only slight pain of touching the scalp, still slight weakness
- course of disease, symptoms (SARS-COV-2; Example 2, patient, 2 mg s.c., 30.04.2020, sixth administration): Significant improvement of clinical symptoms, normal temperature
- course of disease, symptoms (SARS-COV-2; Example 2, patient, 01. to 04.05.2020, after six doses, antibiotic coverage): taste completely returned, no more cough, no more fever, clinical well-being
- course of disease, symptoms (SARS-COV-2; Example 3, patient, 25.12.2020, therapy begun 23.12.2020 with 2 mg/d s.c.): significant improvement of cough and general condition
- course of disease, symptoms (SARS-COV-2; Example 3, patient, after completion of therapy (2 mg/d then 0.2 mg/d for four days, s.c.)): No further symptoms
- course of disease, symptoms (SARS-COV-2; Example 4, patient, 25.12.2020, therapy begun 23.12.2020 with 2 mg/d s.c.): significant improvement of cough and general condition
- course of disease, symptoms (SARS-COV-2; Example 4, patient, after completion of therapy (2 mg/d two days, 0.2 mg/d four days, s.c.)): No further symptoms
- course of disease, symptoms (SARS-COV-2; Example 5, patient, 26.12.2020, therapy begun 23.12.2020 with 2 mg/d s.c.): significant improvement of symptoms
- shortness of breath (SARS-COV-2; Example 5, patient, after subsequent 0.2 mg/d s.c. for fourteen days from 15.01.2021): No further shortness of breath
- course of disease, symptoms (SARS-COV-2; Example 6, patient, 14.12.2020, 0.2 mg/d s.c. begun 10.12.2020): significant improvement of symptoms
- course of disease, symptoms (SARS-COV-2; Example 6, patient, 20.12.2020, 0.2 mg/d s.c. for ten days): complete recovery of symptoms
- anti-viral effect (J-96 Human Cell Line): anti-viral effect
- toxicity (Toxicity at high dosages): not toxic
